Laboratory results taken from patent US20230226095A1, “METHODS AND COMPOSITIONS FOR TREATING C[…]” (The Children's Medical Center Corporation, priority 2020, published 2023).

B1: recombinant amphiregulin: recombinant epidermal growth factor-like cytokine amphiregulin, necessary for tissue repair (protein, UniProt P15514 101-187, looked up)
Amphiregulin: SVRVEQVVKPPQNKTESENTSDKPKRKKKGGKNGKNRRNRKKKNPCNAEFQNFCIHGECKYIEHLEAVTCKCQQEYFGERCGEKSMK

Assays:
Treg cells = assay: In vitro induction of Notch4 expression in Treg cells; type: cell-based; details: Treg cells from PBS or Poly I:C-treated mice
Experimental: To further elucidate the mechanisms of Notch4 induction in Treg cells, in vitro studies were conducted to examine the capacity of Poly I:C and cytokine treatment to upregulate Notch4 expression in Treg cells isolated from PBS or Poly I:C-treated mice.

lung tissue Treg cells = assay: Daily intra-tracheal instillation of Poly I:C, flow cytometry of lung T cells; type: in vivo, mice
Description: To investigate the mechanism by which Notch4 licenses lung tissue inflammation in viral respiratory infections, its role in Poly I:C-induced airway inflammation was first examined. Poly I:C stimulates Toll like receptor 3 and the downstream viral RNA sensors cytoplasmic retinoic acid-inducible gene I (RIG-I) and melanoma differentiation-associated protein 5 (MDA5), thus providing a proxy model of RNA viral infections (Broggi et al., 2020; Iwasaki and Pillai, 2014; Kato et al., 2006). […] Treg cell specific deletion of Notch4 using a Foxp3-driven Cre recombinase (Foxp3YFPCre) and floxed Notch4 allele (Foxp3YFPCreNotch4Δ/Δ) protected the mice from the weight loss induced by the Poly I:C treatment (data not shown).
(§1) Polyinosinic-polycytidylic acid (Poly I:C) mouse model. Mice were treated intratracheally with 2.5 mg/kg of Poly I:C HMW (InvivoGen) daily for six consecutive days. The weight of the mice was recorded daily upon application of the Poly I:C. The mice were subjected to airway hyperresponsiveness at day 7, then euthanized and analyzed. For blockading amphiregulin, mice were treated with a peptide spanning amino acids 91140 of the middle region of the human amphiregulin preproprotein (amphiregulin91-140 peptide; Mybiosource). The peptide was given intratracheally at 10 µg/ml in PBS in a final volume of 100 µl. For the amphiregulin neutralizing antibody tests, the mice were given intraperitoneally 20 µg of goat anti-mouse amphiregulin mAb (clone AF989; R&D systems) or isotype control mAb (clone AB-108-C; R&D systems) daily for the duration of the experiment.

[1] = system: Foxp3YFPCre mice treated with Poly I:C; assay: Recombinant amphiregulin therapy in Poly I:C-induced lung inflammation; type: in vivo; details: data not shown
Description: To establish the role of amphiregulin in the protection against lung inflammation induced by Notch4 depletion, the capacity of recombinant amphiregulin therapy to rescue Poly I:C-induced lung inflammation was examined. […] Recombinant amphiregulin also reversed the skewing of lung macrophages towards an M1 phenotype upon in vitro treatment with Poly I:C (FIG. 7H), mirroring the same effect of Foxp3YFPCreNotch4Δ/Δ Treg cells (data not shown).
as §1

lung macrophages = assay: Lung macrophage M1/M2 polarization in vitro upon Poly I:C treatment; type: cell-based, mice; details: in vitro treatment with Poly I:C
Experimental: Regulatory T-cell co-cultures with macrophages. Macrophages cells are isolated from lungs of Poly I:C-treated mice. Macrophages were isolated based on CD45^+ F4/80^+ MHCII^+. Macrophages were then co-cultured (at 1:1 concentration) with lungs Treg cells from Foxp3^YFPCre or Foxp3^YFPCreNotch4^Δ/Δ mice Poly I:C-treated mice. Cells were treated with Poly I:C at a concentration of 10 ug/ml for three days. After 72 h, M1 (F4/80^+ MHCII^+ CD68^+ CD80^+CD86^+) and M2 (F4/80^+ MHCII^+ CD163^+ CD206^+) polarization was measured by flow cytometric analysis.
M1 and M2 gating strategy. M1 was defined as follows: CD45^+CD4^-F4/80^+MHCII^+ CD68^+ CD80^+CD86^+ while M2 macrophages were defined as follows: CD45^+CD4^-F4/80^+ MHCII+CD163+CD206+.

[2] = daily intra-tracheal for 6 consecutive days

Row | Molecule | Notch4 expression in lung Treg cells (Treg cells) | Notch4 expression in splenic Treg cells (Treg cells) | expression of Hippo pathway effector Yap in lung tissue Treg cells (lung tissue Treg cells; Poly I:C treatment) | expression of Wnt pathway effector beta-Catenin in lung tissue Treg cells (lung tissue Treg cells; Poly I:C treatment) | expression of Notch4 on CD4+ Teff cells (lung tissue Treg cells; [2]) | frequencies and absolute numbers of Notch4 expressing lung tissue Treg cells and MFI of Notch4 (lung tissue Treg cells; [2]) | epithelial barrier function ([1]; Poly I:C treatment) | inflammatory responses induced by Poly I:C treatment [1] | weight loss induced by Poly I:C treatment [1] | skewing of lung macrophages towards an M1 phenotype (lung macrophages)
1 | Polyinosinic-polycytidylic acid [Poly I:C] | increased Notch4 expression | not splenic | potently induced | unchanged | minimal expression | sharp progressive increase | – | – | – | –
2 | B1 | – | – | – | – | – | – | restoration of an intact epithelial barrier function | largely abrogated | largely abrogated | reversed
